# According to paper PMC6277767, “Broad and Region-Specific Impacts of the Synthetic Cannabinoid CP 55,940 in Adolescent and Adult Female Mouse Brains” (Frontiers in Molecular Neuroscience, 2018):
# Tested on: CD1 female mouse brain lipidome
# Assay: Brain-region lipid levels (HPLC/MS/MS lipidomics) 2 h after single i.p. 3 mg/kg CP 55,940 vs vehicle
# Assay type: in vivo
# Parameters: N-arachidonoyl phenylalanine level, Mean / N-stearoyl tryptophan level, Mean / N-stearoyl proline level, Mean / N-stearoyl leucine level, Mean / N-stearoyl phenylalanine level, Mean / N-stearoyl serine level, Mean / N-stearoyl methionine level, Mean: unit: moles per gram
# Conditions: cortex
# Protocol: The Bloomington Institutional Animal Care and Use Committee of Indiana University reviewed and approved the animal procedures. Female mice from the CD1 strain were utilized to match our study examining THC’s effects on the brain lipidome ([Leishman et al., 2018]). Mice were given a single i.p. injection of either 3 mg/kg CP or 1:1:18 cremophor:ethanol:saline vehicle (please refer to the section “3 mg/kg CP Is Relevant for Synthetic Cannabinoid Abuse and Has Stronger Effects on the Female Mouse Brain Lipidome During Adolescence” for a justification of dose and use of female mice). Three different age groups were given injections: PND 35 and PND 50 adolescents, and adult mice (PND 113). At least eight mice in each age group received CP and at least eight received vehicle. Matching the THC study time course ([Leishman et al., 2018]), mice were sacrificed via rapid decapitation 2 h after injection. Brains were immediately removed and flash-frozen in liquid nitrogen, and then stored at -80°C until dissections were performed. Brains were dissected on an ice-cold dissection plate into the following regions: STR, HIPP, CER, THAL, CTX, HYP, MID, and STEM. These abbreviations for these brain areas will be used exclusively when discussing the results generated by these specific dissections. Each dissected area was immediately placed in liquid nitrogen and then stored at -80°C until used for lipid extraction.
# Tissue extracts were performed as previously described ([Bradshaw et al., 2006]; [Stuart et al., 2013]; [Raboune et al., 2014]; [Leishman et al., 2016a],[b], [2017], [2018]). First, samples were shock frozen in liquid nitrogen, weighed, and transferred to a centrifuge tube. The mass of the largest sample was multiplied by 50 to determine how many milliliters of HPLC-grade methanol (Fisher, Fair Lawn, NJ, United States) to add. Then, samples were spiked with 500 pmol deuterium-labeled NAGly (d8NAGly; Cayman Chemical, Ann Arbor, MI, United States). Samples were placed on ice in darkness for 2 h then individually homogenized and centrifuged at 19,000 × g for 20 min at 20°C. Supernatants were diluted with HPLC water (purified in house) to make a solution of 75% water, 25% supernatant. Lipids were partially purified on C18 solid phase extraction columns (Agilent, Palo Alto, CA, United States). A series of four elutions with 1.5 mL of 60%, 75%, 85%, and 100% methanol were collected ([Stuart et al., 2013]; [Leishman et al., 2016a],[b], [2018]).
# As previously described ([Bradshaw et al., 2006]; [Tan et al., 2006]; [Smoum et al., 2010]; [Stuart et al., 2013]; [Tortoriello et al., 2013]; [Raboune et al., 2014]; [Leishman et al., 2016a],[b], [2017], [2018]), samples were analyzed using an Applied Biosystems API 3000 triple quadrupole mass spectrometer with electrospray ionization (Foster City, CA, United States). Using an Agilent XDB-C18 reversed phase analytical column and optimized mobile phase gradients, 20 μL from each elution were chromatographed. Two Shimadzu 10ADvp pumps (Columbia, MD, United States) provided the pressure for gradient elution. Mobile phase A: 20% methanol, 80% water (v/v) and 1 mM ammonium acetate (Sigma, St. Louis, MO, United States). Mobile phase B: 100% methanol, 1 mM ammonium acetate. Every method run began with 0% mobile phase B, reached 100% mobile phase B flowing at 0.2 mL/min, and gradually returned to 0% mobile phase B.
# This screening library will be referred to as the lipidome when discussing data from this study. HPLC/MS/MS data were analyzed using Analyst software (Applied Biosystems) ([Bradshaw et al., 2006]; [Tan et al., 2006]; [Stuart et al., 2013]; [Tortoriello et al., 2013]; [Raboune et al., 2014]; [Leishman et al., 2016a],[b], [2017], [2018]). Chromatograms (Supplementary Figure 3) were generated by determining the retention time of analytes from the analytical column with a [M-1] or [M+1] parent peak and a fragmentation peak corresponding to the programmed values. […]
# [1] = PND 50, 3 mg/kg CP 55,940, ANOVA p .000
# [2] = PND 50, 3 mg/kg CP 55,940, ANOVA p .002
# [3] = PND 50, 3 mg/kg CP 55,940, ANOVA p .004
# [4] = PND 50, 3 mg/kg CP 55,940, ANOVA p .040
# [5] = PND 50 female mice, 3mg/kg CP 55,940
smiles,measurement,setting,value
"CCCCCCC(C)(C)c1ccc([C@@H]2C[C@H](O)CC[C@H]2CCCO)c(O)c1 [CP 55,940]","Arachidonic acid, Direction (relative to Veh)","PND 50, 3 mg/kg CP 55,940",↓
same,"Linoleic acid, Direction (relative to Veh)","PND 50, 3 mg/kg CP 55,940",↓
same,N-arachidonoyl GABA Direction (relative to Veh),"PND 50, 3 mg/kg CP 55,940",↓
same,"N-arachidonoyl alanine, Direction (relative to Veh)","PND 50, 3 mg/kg CP 55,940",↓
same,"N-arachidonoyl ethanolamine, Direction (relative to Veh)","PND 50, 3 mg/kg CP 55,940",↓
same,"N-arachidonoyl phenylalanine, Direction (relative to Veh)","PND 50, 3 mg/kg CP 55,940",↓
same,N-arachidonoyl taurine Direction (relative to Veh),"PND 50, 3 mg/kg CP 55,940",↓
same,"N-docosahexaenoyl ethanolamine, Direction (relative to Veh)","PND 50, 3 mg/kg CP 55,940",↓
same,"N-linoleoyl ethanolamine, Direction (relative to Veh)","PND 50, 3 mg/kg CP 55,940",↓
same,"N-oleoyl ethanolamine, Direction (relative to Veh)","PND 50, 3 mg/kg CP 55,940",↓
same,"N-oleoyl serine, Direction (relative to Veh)","PND 50, 3 mg/kg CP 55,940",↑
same,"N-palmitoyl leucine, Direction (relative to Veh)","PND 50, 3 mg/kg CP 55,940",↑
same,"N-palmitoyl methionine, Direction (relative to Veh)","PND 50, 3 mg/kg CP 55,940",↑
same,N-palmitoyl phenylalanine Direction (relative to Veh),"PND 50, 3 mg/kg CP 55,940",↑
same,"N-palmitoyl tyrosine, Direction (relative to Veh)","PND 50, 3 mg/kg CP 55,940",↑
same,N-palmitoyl valine Direction (relative to Veh),"PND 50, 3 mg/kg CP 55,940",↑
same,"N-stearoyl phenylalanine, Direction (relative to Veh)","PND 50, 3 mg/kg CP 55,940",↑
same,N-stearoyl valine Direction (relative to Veh),"PND 50, 3 mg/kg CP 55,940",↑
same,PGE2 Direction (relative to Veh),"PND 50, 3 mg/kg CP 55,940",↓
same,"Linoleic acid, Magnitude (x Veh level)",[1],0.57 x Veh level
same,"N-palmitoyl leucine, Magnitude (x Veh level)",[1],1.41 x Veh level
same,"N-palmitoyl methionine, Magnitude (x Veh level)",[1],1.43 x Veh level
same,"N-oleoyl ethanolamine, Magnitude (x Veh level)",[2],0.65 x Veh level
same,PGE2 Magnitude (x Veh level),[2],0.79 x Veh level
same,N-arachidonoyl GABA Magnitude (x Veh level),[3],0.86 x Veh level
same,N-arachidonoyl taurine Magnitude (x Veh level),[3],0.84 x Veh level
same,2-linoleoyl glycerol Magnitude (x Veh level),"PND 50, 3 mg/kg CP 55,940, ANOVA p .005",0.67 x Veh level
same,N-palmitoyl phenylalanine Magnitude (x Veh level),"PND 50, 3 mg/kg CP 55,940, ANOVA p .006",1.39 x Veh level
same,"N-arachidonoyl ethanolamine, Magnitude (x Veh level)","PND 50, 3 mg/kg CP 55,940, ANOVA p .007",0.70 x Veh level
same,N-arachidonoyl alanine Magnitude (x Veh level),"PND 50, 3 mg/kg CP 55,940, ANOVA p .012",0.75 x Veh level
same,"N-docosahexaenoyl ethanolamine, Magnitude (x Veh level)","PND 50, 3 mg/kg CP 55,940, ANOVA p .014",0.72 x Veh level
same,"2-oleoyl glycerol, Magnitude (x Veh level)","PND 50, 3 mg/kg CP 55,940, ANOVA p .018",0.88 x Veh level
same,N-palmitoyl valine Magnitude (x Veh level),"PND 50, 3 mg/kg CP 55,940, ANOVA p .019",1.37 x Veh level
same,"N-stearoyl phenylalanine, Magnitude (x Veh level)","PND 50, 3 mg/kg CP 55,940, ANOVA p .039",1.12 x Veh level
same,"Arachidonic acid, Magnitude (x Veh level)",[4],0.76 x Veh level
same,"N-oleoyl serine, Magnitude (x Veh level)",[4],1.09 x Veh level
same,"N-arachidonoyl phenylalanine, Magnitude (x Veh level)","PND 50, 3 mg/kg CP 55,940, ANOVA p .044",0.78 x Veh level
same,N-palmitoyl tyrosine Magnitude (x Veh level),"PND 50, 3 mg/kg CP 55,940, ANOVA p .053",1.25 x Veh level
same,"N-linoleoyl ethanolamine, Magnitude (x Veh level)","PND 50, 3 mg/kg CP 55,940, ANOVA p .066",0.69 x Veh level
same,N-stearoyl valine Magnitude (x Veh level),"PND 50, 3 mg/kg CP 55,940, ANOVA p .067",1.29 x Veh level
same,"2-arachidonoyl glycerol level, Mean",[5],2.72E-09
same,"2-linoleoyl glycerol level, Mean",[5],9.55E-11
same,"2-oleoyl glycerol level, Mean",[5],1.53E-09
same,"2-palmitoyl glycerol level, Mean",[5],5.35E-09
same,"6-ketoPGF1α level, Mean",[5],5.34E-12
same,"11-OH-THC level, Mean",[5],BDL
same,"11-nor-9-carboxyTHC level, Mean",[5],BDL
same,"Arachidonic acid level, Mean",[5],1.42E-09
same,"Cannabidiol level, Mean",[5],BDL
same,"Linoleic acid level, Mean",[5],9.48E-10
same,"N- stearoyl valine level, Mean",[5],2.32E-13
same,"N-arachidonoyl GABA level, Mean",[5],1.93E-11
same,"N-arachidonoyl alanine level, Mean",[5],9.08E-13
same,"N-arachidonoyl dopamine level, Mean",[5],BDL
same,"N-arachidonoyl ethanolamine level, Mean",[5],1.23E-11
same,"N-arachidonoyl glycine level, Mean",[5],3.26E-12
same,"N-arachidonoyl phenylalanine level, Mean",[5],4.3E-13
same,"N-arachidonoyl proline level, Mean",[5],BDL
same,"N-arachidonoyl serine level, Mean",[5],1.27E-11
same,"N-arachidonoyl taurine level, Mean",[5],5.99E-11
same,"N-arachidonoyl tryptophan level, Mean",[5],BDL
same,"N-arachidonoyl tyrosine level, Mean",[5],1.87E-13
same,"N-docosahexaenoyl GABA level, Mean",[5],9.29E-12
same,"N-docosahexaenoyl ethanolamine level, Mean",[5],1.26E-11
same,"N-docosahexaenoyl glycine level, Mean",[5],3.17E-13
same,"N-docosahexaenoyl leucine level, Mean",[5],3.29E-13
same,"N-docosahexaenoyl methionine level, Mean",[5],BDL
same,"N-docosahexaenoyl phenylalanine level, Mean",[5],4.81E-13
same,"N-docosahexaenoyl proline level, Mean",[5],BDL
same,"N-docosahexaenoyl serine level, Mean",[5],1.83E-11
same,"N-docosahexaenoyl tryptophan level, Mean",[5],BDL
same,"N-docosahexaenoyl tyrosine level, Mean",[5],3.22E-13
same,"N-docosahexaenoyl valine level, Mean",[5],PISSR
same,"N-linoleoyl GABA level, Mean",[5],6.54E-12
same,"N-linoleoyl ethanolamine level, Mean",[5],1.61E-11
same,"N-linoleoyl glycine level, Mean",[5],1.08E-13
same,"N-linoleoyl leucine level, Mean",[5],7.72E-14
same,"N-linoleoyl methionine level, Mean",[5],BDL
same,"N-linoleoyl phenylalanine level, Mean",[5],1E-13
same,"N-linoleoyl proline level, Mean",[5],BDL
same,"N-linoleoyl serine level, Mean",[5],6.54E-11
same,"N-linoleoyl tryptophan level, Mean",[5],BDL
same,"N-linoleoyl tyrosine level, Mean",[5],BDL
same,"N-linoleoyl valine level, Mean",[5],PISSR
same,"N-nervonoyl valine level, Mean",[5],BDL
same,"N-oleoyl GABA level, Mean",[5],1.38E-11
same,"N-oleoyl alanine level, Mean",[5],1.52E-12
same,"N-oleoyl dopamine level, Mean",[5],BDL
same,"N-oleoyl ethanolamine level, Mean",[5],3.66E-11
same,"N-oleoyl glycine level, Mean",[5],1.38E-12
same,"N-oleoyl leucine level, Mean",[5],7.87E-13
same,"N-oleoyl methionine level, Mean",[5],2.34E-13
same,"N-oleoyl phenylalanine level, Mean",[5],1.02E-12
same,"N-oleoyl proline level, Mean",[5],BDL
same,"N-oleoyl serine level, Mean",[5],1.22E-10
same,"N-oleoyl tryptophan level, Mean",[5],BDL
same,"N-oleoyl tyrosine level, Mean",[5],3.4E-13
same,"N-oleoyl valine level, Mean",[5],6.43E-14
same,"N-palmitoyl GABA level, Mean",[5],1.74E-11
same,"N-palmitoyl alanine level, Mean",[5],1.42E-12
same,"N-palmitoyl ethanolamine level, Mean",[5],1.43E-11
same,"N-palmitoyl glycine level, Mean",[5],6.08E-12
